Data taken from publication PMC12346692, “SUL-150 Limits Vascular Remodeling and Ventricular Failure in Pulmonary Arterial Hypertension” (International Journal of Molecular Sciences, 2025).

Columns and labels:
α1-adrenoceptor = system: α1-adrenoceptor; design: method as in PMID 30626882; details: no test in this paper; α1 antagonism attributed; cited from earlier work
pulmonary artery rings = experiment: Ex vivo myography of pulmonary artery rings, acute SUL-150 pre-incubation, phenylephrine-induced vasoconstriction; design: species or system rat; details: 10^−4 M SUL-150 pre-incubation
Experimental: The fourth-degree branching intralobar pulmonary arteries were carefully dissected under a Leica S4E stereomicroscope as described before. Arterial ring segments (2 mm length) were mounted in a Mulvany-type wire myograph system (model #610M, Danish Myo Technology, Aarhus, Denmark) using Ø40 µm steel wire. Rings were preserved in myography chambers filled with aerated Krebs buffer (pH 7.4) at 37 °C. After 20 min equilibration, rings were stretched to 1.8 kPa using the DMT Normalization Procedure and allowed to equilibrate for an additional 20 min. Analogue–digital signal conversion was performed using PowerLab 8/30, and a myogram was recorded in PowerLab Chart v 5.3 (AD Instruments, Oxford, UK). To assess the acute effects of SUL-150 on vasoconstriction, arterial rings were pre-constricted with 60 mM KCl and, following washout and stabilization, incubated with vehicle (0.1% DMSO) or SUL-150 (10^−4 M) for 20 min. Next, constriction responses to phenylephrine (phenylephrine, Sigma-Aldrich, St. Louis, MO, USA) were recorded in the dose range of 3 × 10^−9 to 3 × 10^−5 M. To assess the chronic effects of SUL-150 treatment, a similar protocol was followed, leaving out the preincubation with vehicle or SUL-150. Isometric responses were calculated as % of maximal KCl-induced constriction, and dose–response curves were recorded to determine the efficacy (Emax) and potency (EC50) of phenylephrine to induce vasoconstriction.

Cc1c(C)c2c(c(C)c1O)CC[C@](C)(C(=O)N1CCNCC1)O2 [SUL-150, (R)-(6-hydroxy-2,5,7,8-tetramethylchroman-2-yl)(piperazin-1-yl)methanone]
pA2 as an α1-adrenoceptor antagonist (α1-adrenoceptor): ≈ 5.4 | Emax of phenylephrine-induced vasoconstriction after SUL-150 pre-incubation (pulmonary artery rings; pulmonary artery rings of PAH rats (day 21 post-MCT)): 11.03 % of max | Emax of phenylephrine-induced vasoconstriction after SUL-150 pre-incubation (pulmonary artery rings; pulmonary artery rings of sham rats, % of maximal KCl-induced constriction): 15.6 % of max
